Assay [1] deals with IvAIS1. Nature of the assay: GC-MS product assay, isoeugenol formation. The class given is biochemical, Illicium verum. As to conditions: NADPH co-substrate; pH 7.0, 45 °C.
Assay [2] has as its system IvAIS1. Nature of the assay: GC-MS product assay, t-anol formation. The format is biochemical, Illicium verum. The note with it: NADPH co-substrate; pH 7.0, 40 °C.

Each structure is given as a SMILES string.

Turning to `COc1cc(/C=C/COC(C)=O)ccc1O` [coniferyl acetate], in assay [1], the Km was determined as 438 ± 44.3 µM.

In the case of `CC(=O)OC/C=C/c1ccc(O)cc1` [coumaryl acetate], the Km in assay [2] was found to be 480 ± 86.6 µM.

The record behind these values is article PMC11938873 (Science Progress, 2025).
